Tested on: blood pressure of subjects
Test: Effect of single administration of MN-08 on blood pressure of subjects (clinical trial)
Format: in vivo, human
From the text: All subjects in the following embodiments have signed informed consent forms, which comply with medical ethics regulations. According to the relevant provisions of Chinese Guidelines for the Prevention and Treatment of Hypertension (2018 Revision), the values measured for hypertension are the average blood pressure measured three times on a different day without the use of antihypertensive drugs. Therefore, in this embodiment, the baseline blood pressure of the subjects before administration is set as the average blood pressure measured at three different times: screening period, occupancy period, and 1 hour before administration, as shown in Tables 1 to 3.
In the clinical trial of amantadine mononitrate compound MN-08, it is investigated the effect of MN-08 on blood pressure in subjects. The experiments were carried out to analyze the blood pressure status of subjects in both the single dose and multiple dose groups.
During a single administration, each dose group is required to fast for at least 10 hours before administration, without water deprivation overnight, and on the day of administration, the medication is taken on an empty stomach at around 8 a.m., with 240 mL of water administered.

Compound: CCC12CC3CC(N)(C1)CC(CO[N+](=O)[O-])(C3)C2 (stereo not drawn) [MN-08]
- diastolic pressure reduced by (6 mg single dose, at 6 hours): 17.1%
- systolic pressure reduced by (6 mg single dose, at 6 hours): 13.2%
- DP (Subject 1, 12 mg single dose, 6 hrs after adm. (D 1), baseline 77 mmHg): 64 mmHg
- SP (Subject 1, 12 mg single dose, 6 hrs after adm. (D 1), baseline 122 mmHg): 104 mmHg
- DP (reduce amplitude) (Subject 1, 12 mg single dose, 6 hrs after adm. (D 1), vs baseline 77 mmHg): −16.9%
- SP (reduce amplitude) (Subject 1, 12 mg single dose, 6 hrs after adm. (D 1), vs baseline 122 mmHg): −14.8%
- DP (Subject 1, 12 mg single dose, 12 hrs after adm. (D 1), baseline 77 mmHg): 60 mmHg
- SP (Subject 1, 12 mg single dose, 12 hrs after adm. (D 1), baseline 122 mmHg): 109 mmHg
- DP (reduce amplitude) (Subject 1, 12 mg single dose, 12 hrs after adm. (D 1), vs baseline 77 mmHg): −22.1%
- SP (reduce amplitude) (Subject 1, 12 mg single dose, 12 hrs after adm. (D 1), vs baseline 122 mmHg): −10.7%
- DP (Subject 2, 42 mg single dose, 6 hrs after adm. (D 1), baseline 79 mmHg): 63 mmHg
- SP (Subject 2, 42 mg single dose, 6 hrs after adm. (D 1), baseline 113 mmHg): 96 mmHg
- DP (reduce amplitude) (Subject 2, 42 mg single dose, 6 hrs after adm. (D 1), vs baseline 79 mmHg): −20.3%
- SP (reduce amplitude) (Subject 2, 42 mg single dose, 6 hrs after adm. (D 1), vs baseline 113 mmHg): −15.0%
- DP (Subject 2, 42 mg single dose, 12 hrs after adm. (D 1), baseline 79 mmHg): 69 mmHg
- SP (Subject 2, 42 mg single dose, 12 hrs after adm. (D 1), baseline 113 mmHg): 96 mmHg
- DP (reduce amplitude) (Subject 2, 42 mg single dose, 12 hrs after adm. (D 1), vs baseline 79 mmHg): −12.7%
- SP (reduce amplitude) (Subject 2, 42 mg single dose, 12 hrs after adm. (D 1), vs baseline 113 mmHg): −15.0%
- DP (Subject 3, 42 mg single dose, 6 hrs after adm. (D 1), baseline 85 mmHg): 72 mmHg
- SP (Subject 3, 42 mg single dose, 6 hrs after adm. (D 1), baseline 124 mmHg): 118 mmHg
- DP (reduce amplitude) (Subject 3, 42 mg single dose, 6 hrs after adm. (D 1), vs baseline 85 mmHg): −15.3%
- SP (reduce amplitude) (Subject 3, 42 mg single dose, 6 hrs after adm. (D 1), vs baseline 124 mmHg): −4.8%
- DP (Subject 3, 42 mg single dose, 12 hrs after adm. (D 1), baseline 85 mmHg): 61 mmHg
- SP (Subject 3, 42 mg single dose, 12 hrs after adm. (D 1), baseline 124 mmHg): 98 mmHg
- DP (reduce amplitude) (Subject 3, 42 mg single dose, 12 hrs after adm. (D 1), vs baseline 85 mmHg): −28.2%
- SP (reduce amplitude) (Subject 3, 42 mg single dose, 12 hrs after adm. (D 1), vs baseline 124 mmHg): −21.0%
- DP (Subject 4, 60 mg single dose, 6 hrs after adm. (D 1), baseline 78 mmHg): 58 mmHg
- SP (Subject 4, 60 mg single dose, 6 hrs after adm. (D 1), baseline 107 mmHg): 93 mmHg
- DP (reduce amplitude) (Subject 4, 60 mg single dose, 6 hrs after adm. (D 1), vs baseline 78 mmHg): −25.6%
- SP (reduce amplitude) (Subject 4, 60 mg single dose, 6 hrs after adm. (D 1), vs baseline 107 mmHg): −13.1%
- DP (Subject 4, 60 mg single dose, 12 hrs after adm. (D 1), baseline 78 mmHg): 58 mmHg
- SP (Subject 4, 60 mg single dose, 12 hrs after adm. (D 1), baseline 107 mmHg): 90 mmHg
- DP (reduce amplitude) (Subject 4, 60 mg single dose, 12 hrs after adm. (D 1), vs baseline 78 mmHg): −25.6%
- SP (reduce amplitude) (Subject 4, 60 mg single dose, 12 hrs after adm. (D 1), vs baseline 107 mmHg): −15.9%
- DP (Subject 5, 60 mg single dose, 6 hrs after adm. (D 1), baseline 73 mmHg): 62 mmHg
- SP (Subject 5, 60 mg single dose, 6 hrs after adm. (D 1), baseline 111 mmHg): 93 mmHg
- DP (reduce amplitude) (Subject 5, 60 mg single dose, 6 hrs after adm. (D 1), vs baseline 73 mmHg): −15.1%
- SP (reduce amplitude) (Subject 5, 60 mg single dose, 6 hrs after adm. (D 1), vs baseline 111 mmHg): −16.2%
- DP (Subject 5, 60 mg single dose, 12 hrs after adm. (D 1), baseline 73 mmHg): 61 mmHg
- SP (Subject 5, 60 mg single dose, 12 hrs after adm. (D 1), baseline 111 mmHg): 95 mmHg
- DP (reduce amplitude) (Subject 5, 60 mg single dose, 12 hrs after adm. (D 1), vs baseline 73 mmHg): −16.4%
- SP (reduce amplitude) (Subject 5, 60 mg single dose, 12 hrs after adm. (D 1), vs baseline 111 mmHg): −14.4%
- DP (Subject 6, 78 mg single dose, 6 hrs after adm. (D 1), baseline 67 mmHg): 61 mmHg
- SP (Subject 6, 78 mg single dose, 6 hrs after adm. (D 1), baseline 113 mmHg): 103 mmHg
- DP (reduce amplitude) (Subject 6, 78 mg single dose, 6 hrs after adm. (D 1), vs baseline 67 mmHg): −9.0%
- SP (reduce amplitude) (Subject 6, 78 mg single dose, 6 hrs after adm. (D 1), vs baseline 113 mmHg): −8.8%
- DP (Subject 6, 78 mg single dose, 12 hrs after adm. (D 1), baseline 67 mmHg): 54 mmHg
- SP (Subject 6, 78 mg single dose, 12 hrs after adm. (D 1), baseline 113 mmHg): 104 mmHg
- DP (reduce amplitude) (Subject 6, 78 mg single dose, 12 hrs after adm. (D 1), vs baseline 67 mmHg): −19.4%
- SP (reduce amplitude) (Subject 6, 78 mg single dose, 12 hrs after adm. (D 1), vs baseline 113 mmHg): −8.0%
- DP (Subject 7, 78 mg single dose, 6 hrs after adm. (D 1), baseline 74 mmHg): 62 mmHg
- SP (Subject 7, 78 mg single dose, 6 hrs after adm. (D 1), baseline 106 mmHg): 94 mmHg
- DP (reduce amplitude) (Subject 7, 78 mg single dose, 6 hrs after adm. (D 1), vs baseline 74 mmHg): −16.2%
- SP (reduce amplitude) (Subject 7, 78 mg single dose, 6 hrs after adm. (D 1), vs baseline 106 mmHg): −11.3%

Reference: patent US20260242330A1, “USE OF AN AMANTADINE MONONITRATE COMPOUND IN MANUFACTURE OF A MEDICAMENT FOR THE PREVENTION AND TREATMENT OF HYPERTENSION” (GUANGZHOU MAGPIE PHARMACEUTICALS CO., LTD., priority 2022, published 2026)
